Measured values from patent US20240150360A1 (THE REGENTS OF THE UNIVERSITY OF MICHIGAN, priority 2021, published 2024).

Columns and labels:
CBP = target: T1, CBP (Homo sapiens, UniProt Q92793); experiment: CBP degradation in 22Rv1 cells (5 h); format: cell-based; conditions: 22Rv1 cells, 5 h; for Dmax: 22Rv1, 5 h, read-out: CBP Degradation (22Rv1, 5 h) DCmax
T1 construct: endogenous in cells; host or cells: 22Rv1 (ATCC CRL-2505) human prostate cancer cells
Text: (§1) Biological Assays. […] Cells with 3-8 passages after purchase were used in experiments.

P300 = target: T2, P300 (Homo sapiens, UniProt Q09472); experiment: P300 degradation in 22Rv1 cells (5 h); format: cell-based; conditions: 22Rv1 cells, 5 h; for Dmax: read-out: P300 Degradation (22Rv1, 5 h) DCmax
T2 construct: endogenous in cells; host or cells: 22Rv1 (ATCC CRL-2505) human prostate cancer cells
Text: as §1

22Rv1 cells = experiment: Cell growth inhibition assay (CellTiter-Glo) in 22Rv1; format: cell-based, human; conditions: Homo sapiens, 22Rv1, 96 h, 22Rv1 cells, 96 h incubation; read-out: Cell Growth Inhibition (IC50) 22Rv1
Summary of the method: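 22Rv1 prostate cancer cells (passages 3-8, DMEM with 10% FBS) were seeded at 4000 cells/well with compound, 3-fold dilutions from 10 μM final. After 96 h at 37° C and 5% CO2, growth was read by CellTiter-Glo 2.0 luminescence.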

HL60 = experiment: Cell growth inhibition in HL60; format: cell-based; conditions: Homo sapiens, HL-60, HL60 cells; read-out: Cell Growth Inhibition (IC50) HL60

T2 sequence (Q09472 whole entry): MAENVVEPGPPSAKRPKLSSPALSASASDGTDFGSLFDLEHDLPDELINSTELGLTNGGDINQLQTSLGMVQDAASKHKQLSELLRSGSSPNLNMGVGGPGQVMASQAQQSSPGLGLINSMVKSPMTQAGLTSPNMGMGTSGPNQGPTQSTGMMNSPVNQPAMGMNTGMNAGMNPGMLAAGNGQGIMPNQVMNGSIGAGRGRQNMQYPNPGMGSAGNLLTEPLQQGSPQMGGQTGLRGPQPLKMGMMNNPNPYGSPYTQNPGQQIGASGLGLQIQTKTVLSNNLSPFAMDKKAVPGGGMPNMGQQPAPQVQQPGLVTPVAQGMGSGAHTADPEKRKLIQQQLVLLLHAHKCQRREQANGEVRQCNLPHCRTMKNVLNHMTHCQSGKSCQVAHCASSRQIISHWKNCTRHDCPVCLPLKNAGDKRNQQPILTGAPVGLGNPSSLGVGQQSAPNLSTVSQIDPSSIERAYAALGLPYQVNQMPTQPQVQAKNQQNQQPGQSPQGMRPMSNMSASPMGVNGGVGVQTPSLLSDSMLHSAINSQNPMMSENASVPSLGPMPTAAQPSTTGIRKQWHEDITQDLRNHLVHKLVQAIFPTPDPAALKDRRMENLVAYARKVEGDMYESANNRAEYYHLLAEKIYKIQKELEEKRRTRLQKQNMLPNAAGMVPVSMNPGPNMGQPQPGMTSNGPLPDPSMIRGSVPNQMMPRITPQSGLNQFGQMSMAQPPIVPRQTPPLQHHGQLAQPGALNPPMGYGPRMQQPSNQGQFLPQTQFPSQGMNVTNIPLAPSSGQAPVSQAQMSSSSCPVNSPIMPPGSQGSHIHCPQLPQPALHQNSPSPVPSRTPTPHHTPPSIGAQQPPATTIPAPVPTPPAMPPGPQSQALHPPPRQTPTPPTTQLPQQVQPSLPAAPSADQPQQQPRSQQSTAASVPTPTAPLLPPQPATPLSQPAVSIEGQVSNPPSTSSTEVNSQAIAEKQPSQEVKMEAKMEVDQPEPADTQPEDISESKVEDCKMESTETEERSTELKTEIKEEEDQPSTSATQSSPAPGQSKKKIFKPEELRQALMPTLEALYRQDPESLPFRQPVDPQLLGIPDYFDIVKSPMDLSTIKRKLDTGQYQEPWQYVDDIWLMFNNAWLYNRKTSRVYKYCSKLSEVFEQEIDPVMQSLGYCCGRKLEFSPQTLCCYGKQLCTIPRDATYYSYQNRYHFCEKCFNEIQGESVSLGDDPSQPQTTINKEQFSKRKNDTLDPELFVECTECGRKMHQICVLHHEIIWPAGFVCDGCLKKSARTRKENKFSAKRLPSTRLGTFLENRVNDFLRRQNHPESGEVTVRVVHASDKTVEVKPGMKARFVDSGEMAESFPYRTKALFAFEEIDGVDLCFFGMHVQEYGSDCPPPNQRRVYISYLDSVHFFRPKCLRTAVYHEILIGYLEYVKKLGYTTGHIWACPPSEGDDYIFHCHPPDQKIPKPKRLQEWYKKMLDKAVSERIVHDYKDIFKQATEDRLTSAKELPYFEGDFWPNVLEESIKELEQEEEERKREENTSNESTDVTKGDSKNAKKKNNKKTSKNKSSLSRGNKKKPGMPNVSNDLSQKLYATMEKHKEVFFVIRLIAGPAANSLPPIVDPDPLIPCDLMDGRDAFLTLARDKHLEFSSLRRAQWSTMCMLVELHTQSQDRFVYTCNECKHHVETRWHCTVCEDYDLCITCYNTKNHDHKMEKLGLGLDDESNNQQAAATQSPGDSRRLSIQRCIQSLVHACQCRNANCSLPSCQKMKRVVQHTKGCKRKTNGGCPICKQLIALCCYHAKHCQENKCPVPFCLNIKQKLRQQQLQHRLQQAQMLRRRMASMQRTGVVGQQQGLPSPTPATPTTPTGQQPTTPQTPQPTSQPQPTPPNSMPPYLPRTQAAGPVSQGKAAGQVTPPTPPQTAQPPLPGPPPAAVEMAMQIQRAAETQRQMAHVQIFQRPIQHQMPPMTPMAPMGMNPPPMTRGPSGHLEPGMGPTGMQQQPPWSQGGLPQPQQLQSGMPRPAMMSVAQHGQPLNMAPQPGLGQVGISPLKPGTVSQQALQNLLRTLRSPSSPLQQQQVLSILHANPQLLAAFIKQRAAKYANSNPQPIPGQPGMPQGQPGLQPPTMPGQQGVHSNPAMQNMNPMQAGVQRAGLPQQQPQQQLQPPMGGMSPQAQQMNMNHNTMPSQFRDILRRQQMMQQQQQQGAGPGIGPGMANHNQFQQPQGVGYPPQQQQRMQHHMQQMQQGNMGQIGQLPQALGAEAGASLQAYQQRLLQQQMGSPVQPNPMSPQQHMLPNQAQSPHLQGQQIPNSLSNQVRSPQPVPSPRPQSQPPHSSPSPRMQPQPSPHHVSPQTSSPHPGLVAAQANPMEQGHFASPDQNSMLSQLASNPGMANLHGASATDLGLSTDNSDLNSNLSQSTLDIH
T1 sequence (Q92793 whole entry): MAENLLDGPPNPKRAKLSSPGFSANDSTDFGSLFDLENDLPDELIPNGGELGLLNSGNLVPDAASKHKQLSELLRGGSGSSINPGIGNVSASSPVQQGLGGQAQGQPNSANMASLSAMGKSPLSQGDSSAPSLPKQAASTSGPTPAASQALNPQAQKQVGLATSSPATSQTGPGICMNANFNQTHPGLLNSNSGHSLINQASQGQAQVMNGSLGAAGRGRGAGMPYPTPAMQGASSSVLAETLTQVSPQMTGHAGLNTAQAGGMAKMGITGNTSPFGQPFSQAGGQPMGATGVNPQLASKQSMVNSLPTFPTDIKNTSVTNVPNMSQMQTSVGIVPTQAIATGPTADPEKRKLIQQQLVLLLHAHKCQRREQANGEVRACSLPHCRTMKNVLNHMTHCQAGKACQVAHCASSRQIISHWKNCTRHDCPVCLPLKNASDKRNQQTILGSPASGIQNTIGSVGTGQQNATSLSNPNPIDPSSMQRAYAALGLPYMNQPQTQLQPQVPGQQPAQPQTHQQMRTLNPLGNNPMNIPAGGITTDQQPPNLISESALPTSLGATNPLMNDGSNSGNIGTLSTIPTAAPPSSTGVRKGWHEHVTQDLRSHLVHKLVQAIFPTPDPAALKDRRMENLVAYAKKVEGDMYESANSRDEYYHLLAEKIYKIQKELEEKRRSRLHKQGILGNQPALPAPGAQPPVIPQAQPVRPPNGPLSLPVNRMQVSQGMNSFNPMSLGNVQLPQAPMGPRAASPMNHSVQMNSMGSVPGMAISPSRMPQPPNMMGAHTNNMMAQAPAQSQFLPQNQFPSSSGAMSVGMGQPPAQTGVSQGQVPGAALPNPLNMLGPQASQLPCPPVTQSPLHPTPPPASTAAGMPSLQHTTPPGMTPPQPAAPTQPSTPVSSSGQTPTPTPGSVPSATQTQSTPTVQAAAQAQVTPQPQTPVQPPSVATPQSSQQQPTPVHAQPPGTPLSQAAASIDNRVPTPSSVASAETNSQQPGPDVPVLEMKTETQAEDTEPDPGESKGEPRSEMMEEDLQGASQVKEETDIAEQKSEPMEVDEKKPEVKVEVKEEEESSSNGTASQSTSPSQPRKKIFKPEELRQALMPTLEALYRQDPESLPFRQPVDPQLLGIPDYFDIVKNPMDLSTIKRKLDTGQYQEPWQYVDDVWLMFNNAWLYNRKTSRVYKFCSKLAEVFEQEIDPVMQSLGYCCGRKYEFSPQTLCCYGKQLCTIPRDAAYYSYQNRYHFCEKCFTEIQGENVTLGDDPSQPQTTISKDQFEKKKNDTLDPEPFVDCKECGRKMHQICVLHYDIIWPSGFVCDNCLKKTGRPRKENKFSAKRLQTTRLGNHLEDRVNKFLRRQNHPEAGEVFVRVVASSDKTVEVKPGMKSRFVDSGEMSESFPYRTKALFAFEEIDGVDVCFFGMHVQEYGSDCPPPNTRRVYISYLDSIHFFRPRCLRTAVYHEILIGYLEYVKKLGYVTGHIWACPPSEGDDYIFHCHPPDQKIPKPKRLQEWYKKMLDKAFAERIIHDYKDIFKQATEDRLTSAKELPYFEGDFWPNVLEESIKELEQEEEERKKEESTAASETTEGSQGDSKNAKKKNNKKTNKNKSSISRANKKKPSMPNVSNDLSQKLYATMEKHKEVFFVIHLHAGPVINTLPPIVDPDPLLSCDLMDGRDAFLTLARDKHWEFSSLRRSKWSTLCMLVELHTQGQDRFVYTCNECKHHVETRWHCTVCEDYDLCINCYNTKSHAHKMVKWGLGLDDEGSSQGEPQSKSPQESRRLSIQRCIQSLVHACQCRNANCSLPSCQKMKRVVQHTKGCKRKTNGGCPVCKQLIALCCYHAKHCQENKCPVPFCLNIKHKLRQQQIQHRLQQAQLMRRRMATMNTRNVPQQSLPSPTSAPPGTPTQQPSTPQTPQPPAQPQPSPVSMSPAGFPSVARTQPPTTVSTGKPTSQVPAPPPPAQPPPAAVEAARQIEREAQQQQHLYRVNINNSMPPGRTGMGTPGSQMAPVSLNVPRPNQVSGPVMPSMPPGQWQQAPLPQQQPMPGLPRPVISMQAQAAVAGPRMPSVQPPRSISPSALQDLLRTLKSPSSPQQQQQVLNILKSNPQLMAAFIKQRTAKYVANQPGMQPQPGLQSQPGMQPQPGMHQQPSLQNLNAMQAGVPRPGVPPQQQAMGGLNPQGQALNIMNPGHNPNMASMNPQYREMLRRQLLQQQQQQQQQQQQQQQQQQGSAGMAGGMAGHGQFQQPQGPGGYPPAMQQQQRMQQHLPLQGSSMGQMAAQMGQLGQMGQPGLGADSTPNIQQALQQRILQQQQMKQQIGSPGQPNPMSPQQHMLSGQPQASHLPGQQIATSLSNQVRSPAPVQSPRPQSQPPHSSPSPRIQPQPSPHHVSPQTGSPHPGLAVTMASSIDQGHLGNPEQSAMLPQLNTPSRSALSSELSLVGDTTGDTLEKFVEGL

Row | Compound | Dmax (CBP) | DC50 (CBP) | DC50 (P300) | Dmax (P300) | IC50 (22Rv1 cells) | IC50 (HL60)
1 | Cn1cc(-c2cc3c(cc2C(F)F)N(c2nn(C4CCN(C(=O)CN5Cc6cc7c(cc6C5)C(=O)N(C5CCC(=O)NC5=O)C7=O)CC4)c4c2CN(CC(F)(F)F)CC4)CCC3)cn1 (stereo not drawn) | < 50% | < 1000 nM | > 1000 nM | < 50% | > 10000 nM | < 10000 nM
2 | CC(=O)N1CCc2c(c(N3CCCc4cc(-c5cnn(C)c5)c(C(F)F)cc43)nn2[C@H]2CC[C@@H](CN3CCc4cc5c(cc4C3)C(=O)N(C3CCC(=O)NC3=O)C5=O)CC2)C1 (relative stereo) [CP-050, 6-((4-(5-acetyl-3-(7-(difluoromethyl)-6-(1-methyl-1H-pyrazol-4-yl)-3,4-dihydroquinolin-1(2H)-yl)-4,5,6,7-tetrahydro-1H-pyrazolo[4,3-c]pyridin-1-yl)cyclohexyl)methyl)-2-(2,6-dioxopiperidin-3-yl)-5,6,7,8-tetrahydro-1H-pyrrolo[3,4-g]isoquinoline-1,3(2H)-dione] | > 90% | < 10 nM | < 10 nM | > 90% | < 100 nM | < 100 nM
3 | CC(=O)N1CCc2c(c(N3CCCc4cc(C5CC5)c(C(F)F)cc43)nn2C2CCN(C(=O)CN3Cc4cc5c(cc4C3)C(=O)N(C3CCC(=O)NC3=O)C5=O)CC2)C1 (stereo not drawn) [CP-013, 6-(2-(4-(5-acetyl-3-(6-cyclopropyl-7-(difluoromethyl)-3,4-dihydroquinolin-1(2H)-yl)-4,5,6,7-tetrahydro-1H-pyrazolo[4,3-c]pyridin-1-yl)piperidin-1-yl)-2-oxoethyl)-2-(2,6-dioxopiperidin-3-yl)-6,7-dihydropyrrolo[3,4-f]isoindole-1,3(2H,5H)-dione] | > 90% | < 10 nM | < 10 nM | > 90% | < 1000 nM | < 1000 nM
4 | CC(=O)N1CCc2c(c(N3CCCc4cc(C5CC5)c(C(F)F)cc43)nn2C2CCN(C(=O)CN3CCc4cc5c(cc4C3)C(=O)N(C3CCC(=O)NC3=O)C5=O)CC2)C1 (stereo not drawn) [CP-014, 6-(2-(4-(5-acetyl-3-(6-cyclopropyl-7-(difluoromethyl)-3,4-dihydroquinolin-1(2H)-yl)-4,5,6,7-tetrahydro-1H-pyrazolo[4,3-c]pyridin-1-yl)piperidin-1-yl)-2-oxoethyl)-2-(2,6-dioxopiperidin-3-yl)-5,6,7,8-tetrahydro-1H-pyrrolo[3,4-g]isoquinoline-1,3(2H)-dione] | > 90% | < 10 nM | < 10 nM | > 70% | < 1000 nM | < 1000 nM
5 | CC(=O)N1CCc2c(c(N3CCCc4cc(Br)c(C(F)F)cc43)nn2C2CCN(C(=O)CN3Cc4cc5c(cc4C3)C(=O)N(C3CCC(=O)NC3=O)C5=O)CC2)C1 (stereo not drawn) [CP-016, 6-(2-(4-(5-acetyl-3-(6-bromo-7-(difluoromethyl)-3,4-dihydroquinolin-1(2H)-yl)-4,5,6,7-tetrahydro-1H-pyrazolo[4,3-c]pyridin-1-yl)piperidin-1-yl)-2-oxoethyl)-2-(2,6-dioxopiperidin-3-yl)-6,7-dihydropyrrolo[3,4-f]isoindole-1,3(2H,5H)-dione] | < 50% | > 1000 nM | > 1000 nM | < 50% | < 1000 nM | < 100 nM
6 | CC(=O)N1CCc2c(c(N3CCCc4cc(-c5cnn(C6CCN(C(=O)CN7Cc8cc9c(cc8C7)C(=O)N(C7CCC(=O)NC7=O)C9=O)CC6)c5)c(C(F)F)cc43)nn2C2CCOCC2)C1 (stereo not drawn) [CP-072, 6-(2-(4-(4-(1-(5-acetyl-1-(tetrahydro-2H-pyran-4-yl)-4,5,6,7-tetrahydro-1H-pyrazolo[4,3-c]pyridin-3-yl)-7-(difluoromethyl)-1,2,3,4-tetrahydroquinolin-6-yl)-1H-pyrazol-1-yl)piperidin-1-yl)-2-oxoethyl)-2-(2,6-dioxopiperidin-3-yl)-6,7-dihydropyrrolo[3,4-f]isoindole-1,3(2H,5H)-dione] | > 90% | < 10 nM | – | – | < 100 nM | < 100 nM
7 | CC(=O)N1CCc2c(c(N3CCCc4cc(-c5cnn(CCCN6Cc7cc8c(cc7C6)C(=O)N(C6CCC(=O)NC6=O)C8=O)c5)c(C(F)F)cc43)nn2C2CCOCC2)C1 (stereo not drawn) [CP-073, 6-(3-(4-(1-(5-acetyl-1-(tetrahydro-2H-pyran-4-yl)-4,5,6,7-tetrahydro-1H-pyrazolo[4,3-c]pyridin-3-yl)-7-(difluoromethyl)-1,2,3,4-tetrahydroquinolin-6-yl)-1H-pyrazol-1-yl)propyl)-2-(2,6-dioxopiepridin-3-yl)-6,7-dihydropyrrolo[3,4-f]isoindole-1,3(2H,5H)-dione] | > 70% | < 10 nM | – | – | < 10000 nM | < 100 nM
8 | CC(=O)N1CCc2c(c(N3CCCc4cc(-c5cnn(CCCN6CCc7cc8c(cc7C6)C(=O)N(C6CCC(=O)NC6=O)C8=O)c5)c(C(F)F)cc43)nn2C2CCOCC2)C1 (stereo not drawn) [CP-074, 6-(3-(4-(1-(5-acetyl-1-(tetrahydro-2H-pyran-4-yl)-4,5,6,7-tetrahydro-1H-pyrazolo[4,3-c]pyridin-3-yl)-7-(difluoromethyl)-1,2,3,4-tetrahydroquinolin-6-y)-1H-pyrazol-1-yl)propyl)-2-(2,6-dioxopiperidin-3-yl)-5,6,7,8-tetrahydro-1H-pyrrolo[3,4-g]isoquinoline-1,3(2H)-dione] | < 50% | > 1000 nM | – | – | < 10000 nM | < 100 nM

Other lines, results leading:

Row | Dmax (CBP) | DC50 (CBP) | DC50 (P300) | Dmax (P300) | IC50 (22Rv1 cells) | IC50 (HL60) | Compound
9 | > 90% | < 10 nM | < 10 nM | > 70% | < 1000 nM | < 1000 nM | CC(=O)N1CCc2c(c(N3CCCc4cc(C)c(C(F)F)cc43)nn2C2CCN(C(=O)CN3Cc4cc5c(cc4C3)C(=O)N(C3CCC(=O)NC3=O)C5=O)CC2)C1 (stereo not drawn) [CP-011, 6-(2-(4-(5-acetyl-3-(7-(difluoromethyl)-6-methyl-3,4-dihydroquinolin-1(2H)-yl)-4,5,6,7-tetrahydro-1H-pyrazolo[4,3-c]pyridin-1-yl)piperidin-1-yl)-2-oxoethyl)-2-(2,6-dioxopiperidin-3-yl)-6,7-dihydropyrrolo[3,4-f]isoindole-1,3(2H,5H)-dione]
10 | > 90% | < 10 nM | < 10 nM | > 70% | < 1000 nM | < 100 nM | CCc1cc2c(cc1C(F)F)N(c1nn(C3CCN(C(=O)CN4Cc5cc6c(cc5C4)C(=O)N(C4CCC(=O)NC4=O)C6=O)CC3)c3c1CN(C(C)=O)CC3)CCC2 (stereo not drawn) [CP-012, 6-(2-(4-(5-acetyl-3-(7-(difluoromethyl)-6-ethyl-3,4-dihydroquinolin-1(2H)-yl)-4,5,6,7-tetrahydro-1H-pyrazolo[4,3-c]pyridin-1-yl)piperidin-1-yl)-2-oxoethyl)-2-(2,6-dioxopiperidin-3-yl)-6,7-dihydropyrrolo[3,4-f]isoindole-1,3(2H,5H)-dione]
11 | > 90% | < 10 nM | < 10 nM | > 70% | < 1000 nM | < 100 nM | CC(=O)N1CCc2c(c(N3CCCc4cc(C(C)C)c(C(F)F)cc43)nn2C2CCN(C(=O)CN3Cc4cc5c(cc4C3)C(=O)N(C3CCC(=O)NC3=O)C5=O)CC2)C1 (stereo not drawn) [CP-015, 6-(2-(4-(5-acetyl-3-(7-(difluoromethyl)-6-isopropyl-3,4-dihydroquinolin-1(2H)-yl)-4,5,6,7-tetrahydro-1H-pyrazolo[4,3-c]pyridin-1-yl)piperidin-1-yl)-2-oxoethyl)-2-(2,6-dioxopiperidin-3-yl)-6,7-dihydropyrrolo[3,4-f]isoindole-1,3(2H,5H)-dione]
